Data published in patent US8916599B2, “1H-benz imidazole-5-carboxamides as anti-inflammatory agents” (Orexo AB, priority 2008, dated 2014).

Target: T1, recombinant human mPGES-1 (Homo sapiens, UniProt O14684)
T1 construct: made in house; host or cells: Rosetta E. coli (microsomal/membrane fraction)
T1 sequence (O14684 1-152): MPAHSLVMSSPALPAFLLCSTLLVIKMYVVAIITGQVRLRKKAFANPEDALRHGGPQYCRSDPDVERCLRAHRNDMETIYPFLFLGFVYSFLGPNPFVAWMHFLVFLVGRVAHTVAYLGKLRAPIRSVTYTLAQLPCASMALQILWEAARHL
Test: mPGES-1 inhibition test (microsomes, PGH2 substrate, HTRF detection of PGE2)
Assay type: biochemical
Conditions: inhibition of mPGES-1 at 1 μM (marked in cell)
Outline: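 Bacterial microsomes with GSH-containing phosphate buffer at pH 7.4 are exposed to test compounds for 25 minutes before a one-minute PGH2 conversion. The quenched, 750-fold diluted mixture is analysed by time-resolved FRET for PGE2.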

In order of rising inhibition at 1 µM:
1. O=C(Nc1ccc(Cl)c(C(F)(F)F)c1)c1ccc2[nH]c(Nc3c(Cl)cccc3Cl)nc2c1 [Example 282, 2-(2,6-Dichloro-phenylamino)-1H-benzimidazole-5-carboxylic acid (4-chloro-3-trifluoromethyl-phenyl)-amide]  100%
2. O=C(Nc1cccc(C(F)(F)F)c1)c1ccc2[nH]c(Nc3c(Cl)cccc3Cl)nc2c1 [Example 283, 2-(2,6-Dichloro-phenylamino)-1H-benzimidazole-5-carboxylic acid (3-trifluoromethyl-phenyl)-amide]  100%

Same assay, conditions: inhibition of mPGES-1 at 10 μM

In order of falling inhibition at 10 µM:
1. CN(C)CCn1c(Nc2c(Cl)cccc2Cl)nc2cc(C(=O)Nc3cc(Cl)ccn3)ccc21 [Example 273, 2-(2,6-Dichloro-phenylamino)-1-(2-dimethylamino-ethyl)-1H-benzimidazole-5-carboxylic acid (4-chloro-pyridin-2-yl)-amide]  100%
2. COCCCn1c(Nc2c(Cl)cccc2Cl)nc2cc(C(=O)Nc3cc(Cl)ccn3)ccc21 [Example 274, 2-(2,6-Dichloro-phenylamino)-1-(3-methoxy-propyl)-1H-benzimidazole-5-carboxylic acid (4-chloro-pyridin-2-yl)-amide]  100%
3. CN(C)CCCn1c(Nc2c(Cl)cccc2Cl)nc2cc(C(=O)Nc3cc(Cl)ccn3)ccc21 [Example 276, 2-(2,6-Dichloro-phenylamino)-1-(3-dimethylamino-propyl)-1H-benzimidazole-5-carboxylic acid (4-chloro-pyridin-2-yl)-amide]  100%
4. O=C(Nc1cc(Cl)ccc1Cl)c1ccc2[nH]c(Nc3c(Cl)cccc3Cl)nc2c1 [Example 281, 2-(2,6-Dichloro-phenylamino)-1H-benzimidazole-5-carboxylic acid (2,5-dichloro-phenyl)-amide]  100%
5. O=C(Nc1ccccc1Cl)c1ccc2[nH]c(Nc3c(Cl)cccc3Cl)nc2c1 [Example 284, 2-(2,6-Dichloro-phenylamino)-1H-benzimidazole-5-carboxylic acid (2-chloro-phenyl)-amide]  100%
6. O=C(Nc1cccc(F)c1)c1ccc2[nH]c(Nc3c(Cl)cccc3Cl)nc2c1 [Example 285, 2-(2,6-Dichloro-phenylamino)-1H-benzimidazole-5-carboxylic acid (3-fluoro-phenyl)-amide]  100%
7. Cc1ccc(NC(=O)c2ccc3[nH]c(Nc4c(Cl)cccc4Cl)nc3c2)cc1Cl [Example 286, 2-(2,6-Dichloro-phenylamino)-1H-benzimidazole-5-carboxylic acid (3-chloro-4-methyl-phenyl)-amide]  100%
8. O=C(NCC1CCCCC1)c1ccc2[nH]c(Nc3c(Cl)cccc3Cl)nc2c1 [Example 288, 2-(2,6-Dichloro-phenylamino)-1H-benzimidazole-5-carboxylic acid cyclohexylmethyl-amide]  100%
9. O=C(Nc1cc(C(F)(F)F)ccc1Cl)c1ccc2[nH]c(Nc3c(Cl)cccc3Cl)nc2c1 [Example 292, 2-(2,6-Dichloro-phenylamino)-1H-benzimidazole-5-carboxylic acid (2-chloro-5-trifluoromethyl-phenyl)-amide]  100%
10. O=C(Nc1cccc(C(F)(F)F)n1)c1ccc2[nH]c(Nc3c(Cl)cccc3Cl)nc2c1 [Example 305, 2-(2,6-Dichloro-phenylamino)-1H-benzimidazole-5-carboxylic acid (6-trifluoromethyl-pyridin-2-yl)-amide]  100%
11. O=C(Nc1ccc(Cl)c(Cl)c1Cl)c1ccc2[nH]c(Nc3c(Cl)cccc3Cl)nc2c1 [Example 312, 2-(2,6-Dichloro-phenylamino)-1H-benzimidazole-5-carboxylic acid (2,3,4-trichloro-phenyl)-amide]  100%
12. Cn1c(Nc2c(Cl)cccc2Cl)nc2cc(C(=O)Nc3ccc(Br)cc3)ccc21 [Example 316, 2-(2,6-Dichloro-phenylamino)-1-methyl-1H-benzimidazole-5-carboxylic acid (4-bromo-phenyl)-amide]  100%
13. Cn1c(Nc2ccccc2OC(F)(F)F)nc2cc(C(=O)Nc3ccc(Br)cc3)ccc21 [Example 320, 1-Methyl-2-(2-trifluoromethoxy-phenylamino)-1H-benzimidazole-5-carboxylic acid (4-bromo-phenyl)-amide]  100%
14. CCn1c(Nc2c(Cl)cccc2Cl)nc2cc(C(=O)Nc3cc(Cl)ccn3)ccc21 [Example 277, 2-(2,6-Dichloro-phenylamino)-1-ethyl-1H-benzimidazole-5-carboxylic acid (4-chloro-pyridin-2-yl)-amide]  99%
15. O=C(Nc1c(Cl)cc(Cl)cc1Cl)c1ccc2[nH]c(Nc3c(Cl)cccc3Cl)nc2c1 [Example 313, 2-(2,6-Dichloro-phenylamino)-1H-benzimidazole-5-carboxylic acid (2,4,6-trichloro-phenyl)-amide]  99%
16. O=C(NCc1ccc(Cl)cc1)c1ccc2[nH]c(Nc3c(Cl)cccc3Cl)nc2c1 [Example 309, 2-(2,6-Dichloro-phenylamino)-1H-benzimidazole-5-carboxylic acid 4-chloro-benzylamide]  98%
17. O=C(Nc1ccc(Br)cc1)c1ccc2[nH]c(Nc3ccccc3Br)nc2c1 [Example 279, 2-(2-Bromo-phenylamino)-1H-benzimidazole-5-carboxylic acid (4-bromo-phenyl)-amide]  97%
18. Cc1cc2nc(NC(=O)c3ccc4[nH]c(Nc5c(Cl)cccc5Cl)nc4c3)[nH]c2cc1C [Example 314, 2-(2,6-Dichloro-phenylamino)-1H-benzimidazole-5-carboxylic acid (5,6-dimethyl-1H-benzimidazol-2-yl)-amide]  97%
19. O=C(Nc1cc(Cl)ccn1)c1ccc2c(c1)nc(Nc1c(Cl)cccc1Cl)n2CC(=O)N1CCOCC1 [Example 275, 2-(2,6-Dichloro-phenylamino)-1-(2-morpholin-4-yl-2-oxo-ethyl)-1H-benzimidazole-5-carboxylic acid (4-chloro-pyridin-2-yl)-amide]  96%
20. Cc1ccc(NC(=O)c2ccc3[nH]c(Nc4c(Cl)cccc4Cl)nc3c2)nc1 [Example 321, 2-(2,6-Dichloro-phenylamino)-1H-benzimidazole-5-carboxylic acid (5-methyl-pyridin-2-yl)-amide]  93%
21. CC(=O)NCCn1c(Nc2c(Cl)cccc2Cl)nc2cc(C(=O)Nc3cc(Cl)ccn3)ccc21 [Example 278, 2-(2,6-Dichloro-phenylamino)-1-(2-acetylamino-ethyl)-1H-benzimidazole-5-carboxylic acid (4-chloro-pyridin-2-yl)-amide]  92%
22. O=C(Nc1cc(Cl)c(Cl)c(Cl)c1)c1ccc2[nH]c(Nc3c(Cl)cccc3Cl)nc2c1 [Example 287, 2-(2,6-Dichloro-phenylamino)-1H-benzimidazole-5-carboxylic acid (3,4,5-trichloro-phenyl)-amide]  92%
23. COCCn1c(Nc2c(Cl)cccc2Cl)nc2cc(C(=O)Nc3cc(Cl)ccn3)ccc21 [Example 272, 2-(2,6-Dichloro-phenylamino)-1-(2-methoxy-ethyl)-1H-benzimidazole-5-carboxylic acid (4-chloro-pyridin-2-yl)-amide]  90%
